Measurements taken from patent US20150366821A1, “ADRENERGIC AGONISTS FOR USE IN TREATING LIVER DAMAGE” (priority 2012, published 2015).

Columns and labels:
[1] = system: 603B cells; test: 603B cell proliferation assay (CCK-8 / direct cell counts); type: cell-based, murine
Description: Cell proliferation assay was performed using the Cell counting Kit-8 (CCK-8) according to the manufacturer's protocol.
To further confirm the CCK-8 assay we also directly counted the cell numbers in some experiments. Adherent cells were treated with 0.25% trypsin solution containing 0.02% EGTA in Ca^2+ and Mg^2+ free phosphate-buffered saline at 37° C. for 5 min, and the viable cell number and dead cell number was determined using Nucleocounter (Chemometec).

[2] = system: APAP induced liver injury; test: APAP induced liver injury model (serum ALT, % necrosis, deaths); conditions: for ALT 3 h after APAP treatment: APAP alone vs APAP with ISO
Description: (§1) Dbh^−/− mice were administered ISO as previously described (Mackintosh, C. A., et al. 2000). Mouse recombinant TWEAK (R&D systems) was administered IP at 0.04 μg/g body weight.
The degree of liver injury was assessed by histology and serum ALT. All liver sections were stained with haematoxylin and eosin (H&E) and scanned by NanoZoomer (Hamamatsu, Japan). Necrotic area was measured and expressed as a percentage of necrotic tissue in whole area of liver section using NDP.view (Hamamatsu, Japan).

[3] = system: liver progenitors and liver injury; conditions: chronic model of liver disease; cited from earlier work
[4] = system: HPC population and liver injury; conditions: in vivo conditions simulating NASH
[5] = system: hepatic progenitor cells (HPC); test: HPC number in APAP induced liver injury model (flow cytometry, immunohistochemistry)
[6] = system: canonical Wnt pathway on HPC; test: Canonical Wnt pathway in liver of ISO treated mice (PCR, immunohistochemistry); type: in vivo
[7] = system: β-catenin in hepatocytes; test: β-catenin expression on primary hepatocytes (western blotting); type: cell-based, mice; conditions: data not shown
Description: Western blotting was performed as described (Soeda, J et al., 2012). Western blots shown are representative of 2 or 3 independent repeats. Semi-quantitative analysis of western blots by densitometry was carried out using LabWorks 4.6 software (UVP, USA).

[8] = system: canonical Wnt pathway (β-catenin) in 603B cells; test: Canonical Wnt pathway in 603B cells (western blot, immunocytochemistry, real-time PCR); type: cell-based, murine
[9] = system: hepatic progenitor cells (HPC); test: CK19 positive HPC number in Dbh−/− mice infused with isoprenaline; type: in vivo; conditions: ISO infused at 20 mg/kg/day
Description: as §1

[10] = system: HPC expansion and hepatomegaly; test: Dbh−/− mice on a diet inducing NASH; type: in vivo; conditions: infusion of ISO
[11] = system: hepatic stellate cells (HSC) and Kupffer cells (KC); test: Wnt expression in isolated liver cell types ex vivo; type: cell-based, mice; conditions: presence of ISO
[12] = system: canonical Wnt pathway (β-catenin, Wnt ligands); test: Canonical Wnt pathway in livers of APAP treated mice (western blot, immunohistochemistry, Wnt ligand PCR); type: in vivo
Description: Semi-quantitative real time PCR was done with Rotor-Gene 3000 (Corbett Robotics) and QuantiFast SYBR Green PCR kit (Qiagen). All real-time PCR reactions were performed in triplicate with GAPDH as an internal control. Target gene levels in treated samples are presented as a ratio to levels detected in corresponding control samples, according to the ΔΔCt method. Western blotting was performed as described (Soeda, J et al., 2012). Western blots shown are representative of 2 or 3 independent repeats. Semi-quantitative analysis of western blots by densitometry was carried out using LabWorks 4.6 software (UVP, USA).

[13] = system: HPC number and liver injury; test: Infusion of SNS agonists into spontaneously steatohepatitic ob/ob mice; type: in vivo
[14] = system: primary hepatocytes
[15] = system: hepatic progenitor cells (HPC); test: HPC number in livers of normal C57BL/6J mice (EpCAM flow cytometry, CK19 immunohistochemistry); type: in vivo; conditions: ISO 2.5 mg/kg
[16] = system: hepatic progenitor cells (HPC); type: in vivo, mice; conditions: recombinant TWEAK 0.04 μg/g IP
Text: FIG. 5C are representative images of immunohistochemical staining with CK19 (DAB chromogen, brown), upper panels; and CK19 with Ki67 (AEC chromogen, red), double staining (middle panels) and NFκB p65 immunostaining (lower panels). Insert=higher magnification, arrow head indicates positive staining of ki67 in CK 19+ve HPCs. White arrow head indicates nuclear localization of NFKb p65 in periportal ductular cells;
Nuclei were stained with DAPI (Vector).

[17] = 24 h after APAP 375 mg/kg, APAP alone vs ISO (2.5 mg/kg) 1 h after APAP

CNC[C@H](O)c1cccc(O)c1 [PE, phenylephrine]
603B cell proliferation ([1]; PE 10 pM to 10 μM): induced moderate but significant proliferation
ALT ([2]; APAP 375 mg/kg, PE 3 mg (3 mg/kg) 1 h after APAP, 24 hrs): 2000±1200
ALT ([2]; APAP 375 mg/kg, PE 10 mg (10 mg/kg) 1 h after APAP, 24 hrs): 450±200

COc1cc2nc(N3CCN(C(=O)c4ccco4)CC3)nc(N)c2cc1OC [PRZ, prazosin]
liver injury [3]: reduced injury
liver progenitors [3]: expanded liver progenitors

CC(C)NCC(O)COc1cccc2ccccc12 (stereo not shown) [PRL, propranolol]
HPC population [4]: expanded the HPC population
effect on ISO induced 603B proliferation ([1]; pre-treatment with 10 μM PRL, 10 μM ISO): inhibited ISO induced proliferation
numbers of HPCs (CK19 positive cells density) ([5]; APAP with subsequent PRL): reduced numbers of HPCs

CC(C)NCC(O)c1ccc(O)c(O)c1 (stereo not shown) [ISO, Isoprenaline]
Wnt6 mRNA in total liver ([6]; 24 h after ISO injection): upregulation of Wnt6 mRNA
β-catenin immunoreactivity on periportal ductular cell ([6]; 24 h after ISO, immunohistochemistry): strong β-catenin immunoreactivity
β-catenin expression on hepatocytes (Western blotting) [7]: did not increase β-catenin expression
Wnt1, 3a, 6 and ma mRNA expression ([8]; 10 μM ISO, real-time PCR): significantly increased
expression of cyclin D1 ([8]; 10 μM ISO, western blot): significantly upregulated
expression of dephophorelated β-catenin (activated β-catenin) ([8]; 10 μM ISO, western blot): significantly upregulated
total β-catenin expression ([8]; 10 μM ISO, western blot): significantly increased
nuclear localisation of β-catenin ([8]; immunofluorescence cytochemistry): accumulation of β-catenin in the nuclei
603B cell proliferation ([1]; ISO 100 pM-10 μM): induced 603B cell proliferation
HPC numbers (CK-19 positive cells) [9]: significantly recovered HPC numbers
number of HPCs (flow cytometry and immunohistochemistry) ([5]; APAP 375 mg/kg + ISO vs APAP alone): significantly increased the number of HPCs
HPC density in the smallest portal tract (CK19 positivity) ([5]; APAP+ISO group compared to APAP alone group): significantly increased
loss of hepatomegaly and expansion of HPC on NASH diet [10]: reversed
Wnt 6 expression in HSC or KC [11]: did not induce upregulation of Wnt 6
β-catenin expression in liver (Western blotting) ([12]; 24 h after injection, ISO treated vs APAP alone and controls): significantly increased
Wnt6 expression in total liver ([12]; APAP+ISO group compared to APAP only group, 24 h): significantly higher expression
Wnt 10a expression ([12]; APAP+ISO group, 2 h after APAP administration): significantly higher expression
β-catenin activation ([12]; APAP+ISO group, 3 h after APAP administration): significant β-catenin activation
activated β-catenin staining in liver (immunohistochemistry) ([12]; APAP+ISO treated groups, 24 h): strong β-catenin staining
ALT 3 h after APAP treatment [2]: significantly attenuated
ALT [2, 17]: 674.1±173 IU/L
hepatic necrosis [2, 17]: 18.48±1.935%
effect on deaths after APAP ([2]; APAP 500 mg/kg intraperitoneally, ISO treatment): reduced by ISO treatment
APAP induced-liver injury (ALT) ([2]; ISO administered 3 hrs post APAP): markedly reduced APAP induced-liver injury
HPC number [13]: increases in HPC number
liver injury [13]: reduction in liver injury
protection of hepatocytes from APAP induced death (LDH release) ([14]; ISO pre-treatment 100 pM-10 μM, 10 mM APAP): did not protect
number of HPC cells (EpCAM flow cytometry, CK19 immunohistochemistry) [15]: increased the number of the HPC cells

CC(=O)N[C@@H](CS)C(=O)O [NAC, N-Acetyl Cysteine]
hepatocyte injury (ALT) ([2]; NAC 150 mg/kg administered 1 hour following APAP overdose): markedly reduces hepatocyte injury
protection from APAP injury (ALT) ([2]; NAC administered 3 hrs post APAP): did not have a protective role

Wnt3a
β-catenin expression on hepatocytes (Western blotting) [7]: induced increased β-catenin expression

CC(=O)Nc1ccc(O)cc1 [APAP, Paracetamol]
ALT 3 h after APAP treatment [2]: significant elevation in ALT
ALT [2, 17]: 3332±462.9 IU/L
deaths ([2]; APAP 500 mg/kg intraperitoneally): significant number of deaths

NC[C@H](O)c1ccc(O)c(O)c1 [NE, Norepinephrine]
HPC number [13]: increases in HPC number
liver injury [13]: reduction in liver injury

B1: DKK1: Wnt antagonist, recombinant mouse Dkk1 (protein, UniProt O54908 32-272, looked up)
Dickkopf-related protein 1: TLNSVLINSNAIKNLPPPLGGAGGQPGSAVSVAPGVLYEGGNKYQTLDNYQPYPCAEDEECGSDEYCSSPSRGAAGVGGVQICLACRKRRKRCMRHAMCCPGNYCKNGICMPSDHSHFPRGEIEESIIENLGNDHNAAAGDGYPRRTTLTSKIYHTKGQEGSVCLRSSDCAAGLCCARHFWSKICKPVLKEGQVCTKHKRKGSHGLEIFQRCYCGEGLACRIQKDHHQASNSSRLHTCQRH
proliferation of ISO-treated vs ISO plus DKK1-treated 603B cells ([1]; recombinant Dkk1 0.1 μg/ml, ISO 10 μM, CCK8): trend towards statistical difference
effect on protection by EpCAM positive cell administration ([2]; APAP + EpCAM+ve cells + DKK1): reversed the effect of EpCAM positive cell administration
effect on protection by ISO stimulated 603B conditioned media ([14]; recombinant DKK1 0.1 μg/ml with CM): reversed

B2: TWEAK: Tumour associated weak inducer of apoptosis; mouse recombinant TWEAK (R&D systems) (protein, UniProt O43508 94-249, looked up)
Tumor necrosis factor ligand …: SAPKGRKTRARRAIAAHYEVHPRPGQDGAQAGVDGTVSGWEEARINSSSPLRYNRQIGEFIVTRAGLYYLYCQVHFDEGKAVYLKLDLLVDGVLALRCLEEFSATAASSLGPQLRLCQVSGLLALRPGSSLRIRTLPWAHLKAAPFLTYFGLFQVH
APAP induced liver injury (% necrosis, serum ALT) ([2]; TWEAK 0.04 μg/g pre-treatment before APAP, 24 h): protected from APAP induced liver injury
HPC proliferation (CK19+ve cells) [16]: induced HPC proliferation
